The record followed here is patent US20240168030A1, “DIRECT FLUORESCENT GLYCAN LABELING” (BIO-TECHNE CORPORATION, priority 2019, published 2024).

One assay deals with T1, FUT9 (Homo sapiens, UniProt Q9Y231).
T1 construct: purchased Bio-Techne (Minneapolis, MN)
T1 sequence (Q9Y231 1-359): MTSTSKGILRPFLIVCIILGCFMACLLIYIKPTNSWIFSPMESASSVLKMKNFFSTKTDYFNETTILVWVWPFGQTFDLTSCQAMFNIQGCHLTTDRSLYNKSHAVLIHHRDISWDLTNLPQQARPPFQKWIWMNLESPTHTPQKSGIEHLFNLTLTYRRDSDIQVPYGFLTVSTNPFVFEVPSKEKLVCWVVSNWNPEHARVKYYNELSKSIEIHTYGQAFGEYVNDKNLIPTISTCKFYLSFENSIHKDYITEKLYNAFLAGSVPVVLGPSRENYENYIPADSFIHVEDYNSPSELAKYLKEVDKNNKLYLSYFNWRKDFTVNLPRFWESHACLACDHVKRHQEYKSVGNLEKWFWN
In words: Fluorescent labeling with fluorophore-conjugated fucose by FUT9. The arrangement: key to Tolerance of the fluorophore by FUT9: +++: indicated by number of + signs; ++: indicated by number of + signs; indicated by number of + signs. The class given is biochemical. The note with it: for Tolerance of the fluorophore by FUT9: fluorophore-conjugated fucose donor, acceptor GlcNAc of lactosamine, FIG. 9. How it is done:
FIG. 9A-FIG. 9B show exemplary results of probing substrate glycans of various fucosyltransferases on fetuin and asialofetuin. FIG. 9A. Probing substrate glycans of fucosyltransferases with guanosine 5′-diphosphate activated Cy5 conjugated fucose (GDP-Cy5-Fuc). […] FUT9 labeled itself (indicated by an arrow in the gel). FIG. 9B. Tolerance of Alexa-Fluor®555 (555), Alexa-Fluor®488 (488), and Cy5 by the indicated fucosyltransferases. All reactions were incubated at 37° C. for 30 minutes and then separated on SDS-PAGE and imaged with silver staining (upper panels) and fluorescent imager (lower panels). M, molecular marker.
(§1) FIG. 10A-FIG. 10D show exemplary results of probing core-6 fucosylation on antibodies by FUT8 incorporation of fluorophores. FIG. 10A. Results of probing substrate glycans of FUT8 (F8) and FUT9 (F9) on Cantuzumab, an anti-Muc1 therapeutic antibody, and NIST reference mAb 8671 using guanosine 5′-diphosphate activated Alexa-Fluor®555 conjugated fucose (GDP-AF555-Fuc) (555), GDP-Cy5-fucose (Cy5), and guanosine 5′-diphosphate activated Alexa-Fluor®488 conjugated fucose (GDP-AF488-Fuc) (488) as donor substrates. Cantuzumab was expressed in FUT8 knockout cells and is devoid of core-6 fucose. Molecular marker (MM) is a prestained Western molecular marker (Bio-Rad Laboratories, Hercules, CA). […] The product of each reaction was separated using SDS-PAGE and imaged with trichloroethanol (TCE) staining (upper panel) and fluorescent imager (lower panel). Labeling on the light chains of the antibodies by Alexa-Fluor®555 is likely the result of non-specific staining due to the use of unpurified GDP-AF555-Fuc that contained free Alexa-Fluor®555. FIG. 10B. […] FIG. 10C. […] FIG. 10D. Schematics of the glycan structures analyzed in FIG. 10B and FIG. 10C.
Mouse IgG (R&D Systems, Minneapolis, MN) was digested with Endo S thoroughly and labeled with 0.3 μg of FUT9 and 0.2 nmol of GDP-Cy5-Fuc in 30 μl at 37° C. for the indicated time points. The glycans were also pretreated with B4GalT2 for 5 minutes at 37° C. and then labeled in the same way. The reactions were separated on 15% SDS PAGE. B4GalT2 pretreatment converted all G1′ to G2′. Maximal labeling on G1′ and G2′ were achieved around 30 minutes. […] The heavy chain (HC) and light chain (LC) were visible in the TCE image. M, Western blot marker (Bio-Rad Laboratories, Hercules, CA).
(§2) For a typical labeling reaction, 1 μg to 5 μg target protein was mixed with 0.2 nmol GDP-f-Fuc and 0.2 μg of a fucosyltransferase in 30 μL buffer of 25 mM Tris pH 7.5, 10 mM MnCl2. The mixture was incubated at 37° C. for 30 minutes. The reaction was then separated by sodium dodecyl sulfate—polyacrylamide gel electrophoresis (SDS-PAGE) and the gel was directly imaged using a fluorescent imager FluorChem M ProteinSimple, Bio-Techne, Minneapolis, MN), followed by imaging with traditional protein imaging methods such as silver staining or trichloroethanol (TCE) staining.
The four enzymes tolerated the three fluorophores to different levels.

The target of the next assay is T2, FUT8 (Homo sapiens, UniProt Q9BYC5).
T2 construct: purchased Bio-Techne (Minneapolis, MN)
T2 sequence (Q9BYC5 1-575): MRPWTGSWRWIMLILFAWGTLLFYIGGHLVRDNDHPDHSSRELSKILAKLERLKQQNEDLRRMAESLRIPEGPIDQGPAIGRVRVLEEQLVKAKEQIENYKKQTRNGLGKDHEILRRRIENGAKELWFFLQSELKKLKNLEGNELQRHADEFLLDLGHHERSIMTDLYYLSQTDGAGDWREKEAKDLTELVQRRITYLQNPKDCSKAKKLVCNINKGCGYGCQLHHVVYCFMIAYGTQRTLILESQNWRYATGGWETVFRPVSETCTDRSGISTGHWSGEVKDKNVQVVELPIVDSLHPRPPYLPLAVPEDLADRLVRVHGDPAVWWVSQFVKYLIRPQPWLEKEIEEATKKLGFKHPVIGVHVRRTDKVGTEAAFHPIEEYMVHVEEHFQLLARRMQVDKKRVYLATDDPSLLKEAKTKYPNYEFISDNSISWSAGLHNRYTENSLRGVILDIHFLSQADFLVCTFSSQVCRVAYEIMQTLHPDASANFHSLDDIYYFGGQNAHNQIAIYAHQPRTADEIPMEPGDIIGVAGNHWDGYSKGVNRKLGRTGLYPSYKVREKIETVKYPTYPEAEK
In words: Fluorescent labeling with fluorophore-conjugated fucose by FUT8. It is filed as biochemical. The arrangement: key to Tolerance of the fluorophore by FUT8: +++: indicated by number of + signs; ++: indicated by number of + signs; indicated by number of + signs. The note with it: for Incorporation of conjugated fucose into antibodies by FUT8: Cantuzumab (FUT8 knockout cells) and NIST mAb 8671, FIG. 10A; for Tolerance of the fluorophore by FUT8: fluorophore-conjugated fucose donor, acceptor core GlcNAc of N-glycans, labeled Cantuzumab in FIG. 10.
Description: as §1, §2
Although FUT8 was known to tolerate azido-fucose (Wu et al. Biochem Biophys Res Commun 473, 524-529 (2016)), it was unknown whether FUT8 could tolerate a fluorophore-conjugated fucose. To test whether FUT8 could tolerate the fluorophore-conjugated fucose and detect its substrate glycans, two substrates were used: Cantuzumab was prepared from a FUT8 knockout cell line, and a reference monoclonal antibody from the National Institute of Standards and Technology (NIST mAb, material 8671, Gaithersburg, MD). The NIST mAb is a humanized IgG1κ monoclonal antibody (Kashi et al. MAbs 10, 922-933 (2018)). IgG antibodies are known to contain an N-glycan site on their heavy chains (Reusch et al. Glycobiology 25, 1325-1334 (2015)).

Take “guanosine 5′-diphosphate activated Alexa-Fluor®488 conjugated fucose [GDP-AF488-Fuc]”: the “Tolerance of the fluorophore by FUT9” value at FUT9 was “+++”. Moreover, on FUT8, the “Incorporation of conjugated fucose into antibodies by FUT8” value is “introduced into Cantuzumab but not to NIST mAb” and the “Tolerance of the fluorophore by FUT8” value is recorded as “++”.
Consider “guanosine 5′-diphosphate activated Alexa-Fluor®555 conjugated fucose [GDP-AF555-Fuc]”, for which, on FUT9 (among Cy5-, AlexaFluor® 488-, and AlexaFluor® 555-conjugated fucoses, FIG. 9B), the “Fluorophore preference of FUT9” value is given as “preferred”. Also, the “Tolerance of the fluorophore by FUT9” value at FUT9 is given as “+++”. At FUT8, the “Incorporation of conjugated fucose into antibodies by FUT8” value was “introduced into Cantuzumab but not to NIST mAb” and the “Tolerance of the fluorophore by FUT8” value is listed as “++”.
